Laboratory results: ChEMBL document CHEMBL1649453, “Activity of temocillin against KPC-producing Klebsiella pneumoniae and Escherichia coli” (Antimicrob Agents Chemother, 2009)
In brackets after ≈: the same amount, converted by molar mass.

Key:
Klebsiella pneumoniae = experiment: Antimicrobial activity against Klebsiella pneumoniae expressing beta-lactamase KPC gene by agar dilution method; assay type: functional
Escherichia coli [1] = experiment: Antimicrobial activity against Escherichia coli clinical isolates expressing beta-lactamase KPC gene by agar dilution method; assay type: functional
Escherichia coli [2] = experiment: Antimicrobial activity against Escherichia coli DH10B harboring pBCSK plasmid expressing beta-lactamase KPC gene by agar dilution method; assay type: functional; settings: K-12 DH10B
Escherichia coli [3] = experiment: Antimicrobial activity against Escherichia coli DH10B by agar dilution method; assay type: functional; settings: K-12 DH10B
[4] = Cmax in human serum at 1 gram, iv; assay type: ADME, organism-based; design: route intravenous
[5] = Protein binding in human serum at 1 gram, iv; assay type: ADME, organism-based; settings: read-out: PB (converted)
[6] = Half life in human serum at 1 gram, iv; assay type: ADME, organism-based
[7] = Drug level in human urine at 500 mg, im bid for 3 days; assay type: ADME, organism-based; settings: read-out: Drug uptake

## CO[C@@]1(NC(=O)C(C(=O)O)c2ccsc2)C(=O)N2[C@@H](C(=O)O)C(C)(C)S[C@@H]21 (some centres undefined) [TEMOCILLIN]
Klebsiella pneumoniae
  MIC50: 32 µg/mL (≈ 77.2 µM)
  MIC90: 32 µg/mL (≈ 77.2 µM)
Escherichia coli [1]
  MIC: 8 µg/mL (≈ 19.3 µM)
Escherichia coli [2]
  MIC: 8 µg/mL (≈ 19.3 µM)
Escherichia coli [3]
  MIC: 8 µg/mL (≈ 19.3 µM)
[4]
  Cmax: 160 µg/mL
[5]
  fraction unbound: 0.15
[6]
  half-life: 4 h
[7]
  concentration at 72 h: 500 µg/mL
